Measured values reported in the NIST ThermoML archive (doi:10.1016/j.fluid.2017.04.006).
Numbers after ± are expanded uncertainties. Each block holds one molecule with its values, some of them ahead of it.

Assays:
[1] = DSC
[2] = Molar enthalpy of transition or fusion; details: DSC
[3] = xn = mol fraction of the nth substance listed; details: 298.15 K, 97.59 kPa, Liquid, Vibrating tube method

- Triple point temperature ([1]; Crystal): 625.95 ± 0.8 K
- Molar enthalpy of transition or fusion ([2]; Crystal): 5.75 ± 0.129 kcal/mol
SMILES: CS(=O)(=O)[O-].[Na+] [sodium methanesulfonate]

- mass density ([3]; x1 = 0.0085): 1014.9 ± 5.5 kg/m3
- mass density ([3]; x1 = 0.0178): 1033.1 ± 5.6 kg/m3
- mass density ([3]; x1 = 0.0275): 1050.8 ± 5.7 kg/m3
- mass density ([3]; x1 = 0.0381): 1068.7 ± 5.8 kg/m3
- mass density ([3]; x1 = 0.051): 1088.7 ± 5.8 kg/m3
- mass density ([3]; x1 = 0.0648): 1108.4 ± 5.9 kg/m3
- mass density ([3]; x1 = 0.0951): 1146.2 ± 5.9 kg/m3
- mass density ([3]; x1 = 0.1144): 1166.9 ± 5.9 kg/m3
- mass density ([3]; x1 = 0.1387): 1190.3 ± 5.8 kg/m3
SMILES: CS(=O)(=O)[O-].[NH4+] [ammonium methanesulfonate] + O

- mass density ([3]; x1 = 0.008): 1025 ± 5.6 kg/m3
- mass density ([3]; x1 = 0.0188): 1059.9 ± 5.9 kg/m3
- mass density ([3]; x1 = 0.0358): 1110.4 ± 6.2 kg/m3
- mass density ([3]; x1 = 0.0438): 1132.7 ± 6.4 kg/m3
- mass density ([3]; x1 = 0.0621): 1179.8 ± 6.6 kg/m3
- mass density ([3]; x1 = 0.0743): 1209.3 ± 6.8 kg/m3
- mass density ([3]; x1 = 0.0952): 1255.7 ± 7 kg/m3
- mass density ([3]; x1 = 0.1087): 1283.5 ± 7.1 kg/m3
- mass density ([3]; x1 = 0.1247): 1313.8 ± 7.2 kg/m3
SMILES: CS(=O)(=O)[O-].[Na+] [sodium methanesulfonate] + O

- Triple point temperature ([1]; Crystal 1): 470.05 ± 1.8 K
- Triple point temperature ([1]; Crystal 2): 463.05 ± 1.2 K
- Molar enthalpy of transition or fusion ([2]; Crystal 1): 2.03 ± 0.12 kcal/mol
- Molar enthalpy of transition or fusion ([2]; Crystal 2): 2.32 ± 0.0717 kcal/mol
SMILES: CS(=O)(=O)[O-].[NH4+] [ammonium methanesulfonate]
